Blank lines part the entries; values can stand above or below the compound they belong to.
Legend:
[1] = preliminary investigations
Excerpt: Quinoline boronic acid (QBA) is commercially available. […] In order to prevent premature metal binding, it was therefore necessary to form a boronic ester.

H2O2 production by Cu = assay: Hydrogen peroxide detection by the Amplex Red/HRP assay (Aβ, Cu(Gly)2, ascorbic acid); format: biochemical
Protocol: FIG. 6. Hydrogen peroxide detection by the Amplex Red/HRP assay for samples containing various combinations of 200 nm Aβ, 200 nm Cu(Gly)2, 10 μM ascorbic acid, 2-200 μM QBP, 50-400 nm 8HQ, in a total volume of 50 μL buffer (50 mM hepes, 150 mM NaCl). Samples were incubated at 37° C. for approximately 1 h before 50 μL of Amplex Red/HRP reagent was added. Fluorescence readings were taken with λex=485 and λem=590 nm.
(§1) The complex [Cu(8HQ)2] has a characteristic absorbance band at 375 nm, which is clearly visible in samples that contain Aβ, Cu^2+ and 8HQ. […] Mass spectral analysis of the sample gives m/z of 352, further confirming formation of [Cu(8HQ)2] in these complex mixtures. The previous experiment contained a relatively high concentration (1 mM) of H2O2 that was added in a single bolus. Several groups have shown that combinations of Aβ, Cu and reductants produce significant amounts of H2O2 from O2. Therefore, to investigate whether these conditions of more biologically relevant H2O2 production are sufficient for activating QPB, samples of Aβ, Cu^2+ (provided as Cu(Gly)2), ascorbic acid, and either 8HQ or QBP were monitored for H2O2 production with the Amplex Red assay. […] Samples that contain Cu and ascorbate (with or without Aβ) provide just over 300 nM detectable H2O2. […] When 8HQ is present at a 2:1 ratio to Cu, the amount of detectable H2O2 diminishes to one third that detected in the presence of Aβ. […] When QBP is added to the reaction mixture in place of 8HQ, a similar result is obtained.

Aβ [2] = assay: Turbidity (light scattering) assay of metal-induced Aβ aggregation; format: biochemical
Protocol: FIG. 4. […] Samples, which contain various combinations of 10 μM Aβ, 10 μM Cu(Gly)2, 10 μM ZnCl2, 10 or 20 μM 8HQ, 20 or 100 μM QBA, 20 or 100 μM QBP, as indicated on the graph, were incubated in a 96 well plate at 37° C. Total volume per well was made up to 200 μL with Hepes buffer. Abs readings were taken 64 min after mixing (diagonal hashed bars). After one hour incubation, 1 mM H2O2 was added to each well and Abs readings were taken after 30 min (horizontal striped bars). Error bars represent the variability of triplicate measurements.

[3] = Rate of conversion of QBP to 8HQ by H2O2 (pseudo first-order, spectrophotometric); format: physicochemical; settings: 100 μM QBP, PBS pH 7.4, 1-10 mM H2O2
Protocol: FIG. 3. Plot of kobs at varying concentrations of H2O2 to obtain the rate constant k for the conversion of QBP to HQ. QBP was initially dissolved in a minimal amount of methanol and then diluted into PBS buffer, pH 7.4, to a final concentration of 100 μM. Spectra were taken immediately after addition of 1-10 mM H2O2; at least 40 spectra were collected before 50% conversion of prochelator to chelator. The change in absorbance at 273 nm was used to follow the reaction. The negative slope of the linear fit of ln(1−(A−Ao/Ao)) vs time gives the observed rate constant kobs. The slope of the line through data kobs vs [H2O2] provides k (M^−1 s^−1).
In order to determine the rate of conversion of QBP to 8HQ by H2O2 (Eq. 2), reactions were monitored spectrophotometrically under pseudo first-order conditions of excess H2O2. The observed rate constants (kobs) were plotted against peroxide concentration (FIG. 3) to give a rate constant k of 0.13 M^−1 s^−1. rate=k[QBP][H2O2] Eq. 2

Aβ [4] = assay: UV-vis analysis of H2O2-treated Aβ samples; format: biochemical; settings: samples containing Aβ/Cu/QBP/H2O2
Excerpt: FIG. 5. UV-vis analysis of H2O2-treated Aβ samples. The samples are the same ones as in FIG. 4.
Further confirmation that Cu(8HQ)2 is, indeed, generated in the reaction of Aβ/Cu/QBP/H2O2 described in FIG. 4 comes from the UV-vis spectrum of the reaction mixture, shown in FIG. 5.
as §1

[5] = UV-vis spectra of oxidation and Cu2+ binding by QBP; settings: 100 μM QBP
Protocol: FIG. 2. Oxidation and Cu^2+ binding by QBP. 100 μM QBP and 50 μM Cu(Gly)2 were incubated in PBS buffer pH 7.4. After one hour, 4 mM H2O2 was added. After 60 min, oxidation and Cu binding were complete. Resulting spectrum is nearly identical to 8HQ-Cu spectra.
With the phenol of 8HQ masked by the pinanediol boronic ester, the QBP prochelator should have little to no affinity for metal ions.

[6] = Stability of QBP in aqueous solution (hydrolysis to QBA), monitored by UV-Vis and mass spectrometry; format: physicochemical

SMILES: OBO.c1ccc2ncccc2c1 [QBA, Quinoline boronic acid]
interaction with metal ions [1]: interacts directly with metal ions

SMILES: Oc1cccc2cccnc12 [8HQ, 8-hydroxyquinoline, reference compound]
amount of detectable H2O2 relative to that detected in the presence of Aβ (H2O2 production by Cu; 8HQ at a 2:1 ratio to Cu): one third | H2O2 production (H2O2 production by Cu; 8HQ at a quarter of an equiv of Cu, 200 nM Cu(Gly)2, 200 nM Aβ, 10 μM ascorbic acid, 1-h incubation, pH 7.4): inhibits H2O2 production | copper-induced Aβ aggregation (Aβ [2]; 2 equiv of 8HQ, 10 μM Aβ, 10 μM Cu(Gly)2, 37° C.): completely inhibits | zinc-induced Aβ aggregation (Aβ [2]; 2 equiv of 8HQ, 10 μM Aβ, 10 μM ZnCl2, 37° C.): significantly reduces

time after H2O2 addition at which oxidation and Cu binding were complete ([5]; 50 μM Cu(Gly)2, PBS pH 7.4, 4 mM H2O2): 60 min | spectrum after addition of H2O2 ([5]; 50 μM Cu(Gly)2, PBS pH 7.4, 4 mM H2O2 added): matches that of [Cu(8HQ)2] | hydrolysis to QBA in aqueous solution ([6]; between pH 5-8, over the course of 10 h): no signs of hydrolysis | hydrolysis to QBA in aqueous solution ([6]; low and high pH values outside pH 5-8, mass spectrometry): some hydrolysis to QBA was detected
SMILES: CC1(C)C2CC3OB(c4cccc5cccnc45)OC3(C)C1C2 (stereo not shown) [QBP]
rate constant k for conversion of QBP to 8HQ by H2O2 [3]: 0.13 M⁻¹ s⁻¹ | formation of [Cu(8HQ)2] (absorbance band at 375 nm) (Aβ [4]): [Cu(8HQ)2] has, indeed, been generated | interaction with Cu2+ in prochelator form (UV-vis spectral change) ([5]; 50 μM Cu(Gly)2, PBS pH 7.4, one hour, no H2O2): does not interact with Cu^2+ | H2O2 detected relative to the concentration obtained in the absence of chelator (H2O2 production by Cu; 100 μM QBP with Cu, ascorbate and Aβ): a third | H2O2 detected (H2O2 production by Cu; 100 μM QBP with Cu, ascorbate and Aβ, 1-h incubation): about 100 nM | turbidity of Aβ/Cu2+ samples after H2O2 addition (Aβ [2]; 1 mM H2O2 added after one hour incubation, read 30 min later): significant decrease in turbidity | metal-induced Aβ aggregation (Aβ [2]; 20 or 100 μM QBP, no H2O2): does not interfere

From patent US9175016B2, “Prochelators useful for inhibiting metal-associated toxicity” (Duke University, priority 2009, dated 2015)
